Measured values: ChEMBL document CHEMBL5380843 (J Med Chem, 2023)

Tests used:
[1] = test system: Human immunodeficiency virus 1; experiment: Antiviral activity against wild type HIV-1 IIIB infected in human MT4 cells assessed as protection against virus-induced cytopathic effect incubated for 5 days by MTT assay; assay type: functional, organism-based; details: Human immunodeficiency virus 1, IIIB, MT4, 120 h
[2] = Cytotoxicity against human MT4 cells assessed as reduction in cell viability incubated for 5 days by MTT assay; assay type: toxicity, cell-based; details: time 5 day
[3] = target: Human immunodeficiency virus type 1 reverse transcriptase (Human immunodeficiency virus 1, UniProt Q72547); experiment: Inhibition of recombinant wild type HIV-1 reverse transcriptase using DNA/RNA as substrate incubated for 40 mins by Pico-green dye based spectrofluorometric analysis
[4] = Resistant factor, ratio of EC50 for antiviral activity against HIV-1 IIIB harboring reverse transcriptase K103N mutant to EC50 for antiviral activity against wild type HIV-1 IIIB; assay type: functional
[5] = test system: Human immunodeficiency virus 1; experiment: Antiviral activity against wild type HIV-1 IIIB harboring reverse transcriptase K103N mutant infected in human MT4 cells assessed as protection against virus-induced cytopathic effect incubated for 5 days by MTT assay; assay type: functional, organism-based; details: Human immunodeficiency virus 1, IIIB, MT4, 120 h
[6] = test system: Human immunodeficiency virus 1; experiment: Antiviral activity against wild type HIV-1 IIIB harboring reverse transcriptase […] mutant infected in human MT4 cells assessed as protection against virus-induced cytopathic effect incubated for 5 days by MTT assay; assay type: functional, organism-based; details: Human immunodeficiency virus 1, IIIB, MT4, 120 h
[7] = Resistant factor, ratio of EC50 for antiviral activity against HIV-1 IIIB harboring reverse transcriptase Y188L mutant to EC50 for antiviral activity against wild type HIV-1 IIIB; assay type: functional
[8] = test system: Human immunodeficiency virus 1; experiment: Antiviral activity against wild type HIV-1 IIIB harboring reverse transcriptase Y181C mutant infected in human MT4 cells assessed as protection against virus-induced cytopathic effect incubated for 5 days by MTT assay; assay type: functional, organism-based; details: Human immunodeficiency virus 1, IIIB, MT4, 120 h
[9] = Resistant factor, ratio of EC50 for antiviral activity against HIV-1 IIIB harboring reverse transcriptase […] mutant to EC50 for antiviral activity against wild type HIV-1 IIIB; assay type: functional
[10] = Resistant factor, ratio of EC50 for antiviral activity against HIV-1 IIIB harboring reverse transcriptase E138K mutant to EC50 for antiviral activity against wild type HIV-1 IIIB; assay type: functional
[11] = Resistant factor, ratio of EC50 for antiviral activity against HIV-1 IIIB harboring reverse transcriptase Y181C mutant to EC50 for antiviral activity against wild type HIV-1 IIIB; assay type: functional
[12] = test system: Human immunodeficiency virus 1; experiment: Antiviral activity against wild type HIV-1 IIIB harboring reverse transcriptase E138K mutant infected in human MT4 cells assessed as protection against virus-induced cytopathic effect incubated for 5 days by MTT assay; assay type: functional, organism-based; details: Human immunodeficiency virus 1, IIIB, MT4, 120 h
[13] = Selectivity index, ratio of CC50 for cytotoxicity against human MT4 cells to EC50 for antiviral activity against wild type HIV-1 IIIB infected in human MT4 cells; assay type: toxicity, cell-based; details: read-out: Ratio CC50/EC50
[14] = test system: Human immunodeficiency virus 1; experiment: Antiviral activity against wild type HIV-1 IIIB harboring reverse transcriptase Y188L mutant infected in human MT4 cells assessed as protection against virus-induced cytopathic effect incubated for 5 days by MTT assay; assay type: functional, organism-based; details: Human immunodeficiency virus 1, IIIB, MT4, 120 h

| Structure (SMILES) | EC50 [1] [nM] | CC50 at 120 h [2] [µM] | IC50 [3] [nM] | Ratio EC50 [4] | EC50 [5] [nM] | EC50 [6] [nM] | Ratio EC50 [7] | EC50 [8] [nM] | Ratio EC50 [9] | Ratio EC50 [10] | Ratio EC50 [11] | EC50 [12] [nM] | selectivity ratio [13] | EC50 [14] [nM] |
| --- | --- | --- | --- | --- | --- | --- | --- | --- | --- | --- | --- | --- | --- | --- |
| C#CCNC(=O)c1cnc(Nc2ccc(C#N)cc2)nc1Oc1c(C)cc(-c2ccc(C#N)cc2)cc1C | 5 | 145 | 72 | 1.6 | 9 | 16 | 11 | 31 | 2.9 | 2.3 | 5.5 | 13 | 25700 | 59 |
| CCONC(=O)c1cnc(Nc2ccc(C#N)cc2)nc1Oc1c(C)cc(-c2ccc(C#N)cc2)cc1C | 5 | > 248 | 94 | 2.1 | 12 | 34 | 25 | 46 | 6.1 | 1.3 | 8.2 | 7 | > 44200 | 138 |
| Cc1cc(-c2ccc(C#N)cc2)cc(C)c1Oc1nc(Nc2ccc(C#N)cc2)ncc1C(=O)NCCO | 3 | > 39.6 | 55 | 1.8 | 6 | 13 | 13 | 29 | 3.9 | 1.8 | 8.8 | 6 | > 11900 | 44 |
| CNC(=O)c1cnc(Nc2ccc(C#N)cc2)nc1Oc1c(C)cc(-c2ccc(C#N)cc2)cc1C | 3 | > 42.1 | 56 | 1.5 | 5 | 9 | 10 | 27 | 2.7 | 1.8 | 8.2 | 6 | > 12700 | 34 |
| Cc1cc(/C=C/C#N)cc(C)c1Nc1ccnc(Nc2ccc(C#N)cc2)n1 [RILPIVIRINE] | – | – | – | – | 1 | 2 | – | 4 | – | – | – | – | – | – |
| O=C1Nc2ccc(Cl)cc2[C@@](C#CC2CC2)(C(F)(F)F)O1 [EFAVIRENZ] | 7 | > 6.34 | – | – | 102 | 44 | – | 7 | – | – | – | 6 | – | 290 |
| Cc1cc(C#N)cc(C)c1Oc1nc(Nc2ccc(C#N)cc2)nc(N)c1Br [ETRAVIRINE] | 6 | > 4.61 | – | – | 3 | 7 | – | 12 | – | – | – | 7 | – | 20 |
| Cc1ccnc2c1NC(=O)c1cccnc1N2C1CC1 [NEVIRAPINE] | – | > 15 | – | – | > 10100 | 2100 | – | > 15900 | – | – | – | 210 | – | > 15900 |
| COc1cc(-c2ccc(C#N)cc2)ccc1Oc1nc(Nc2ccc(C#N)cc2)ncc1C(N)=O | 18 | > 276 | 28 | 0.2 | 4 | 6 | 11 | 136 | 0.3 | 1 | 7.6 | – | > 15300 | 191 |
| Cc1cc(-c2ccc(C#N)cc2)cc(C)c1Oc1nc(Nc2ccc(C#N)cc2)ncc1C(=O)NCCCO | 5 | 31.4 | 71 | 1.6 | 9 | 15 | 8.9 | 51 | 2.7 | 0.9 | 9.1 | – | 5590 | 50 |
| N#Cc1ccc(Nc2nccc(Oc3ccc4cc(C#N)ccc4c3Br)n2)cc1 | – | 283 | – | – | – | – | – | – | – | – | – | – | 181000 | – |
